Experimental data taken from ChEMBL document CHEMBL1201862, “PubChem BioAssay data set” (2004).
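Interpolation was linear, between the two tested concentrations surrounding the appropriate level; five concentrations were tested over 48 hours in 96-well plates. GI50 marks 50% less growth.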 Active and inactive are the calls of the source. Rule as the data show it: active = GI50 up to about 1.1 µM and inactive = higher.

Tests used:
Assay in all cases: inhibition of tumour cell growth, NCI panel, 48 h
OVCAR-4 = system: OVCAR-4
HOP-92 = system: HOP-92
MCF7 = system: MCF7
U-251 = system: U-251
RPMI-8226 = system: RPMI-8226
HL-60 = system: HL-60
A498 = system: A498
MDA-MB-435 = system: MDA-MB-435
PC-3 = system: PC-3
SNB-19 = system: SNB-19
MDA-N = system: MDA-N
SR = system: SR
RXF 393 = system: RXF 393
SF-268 = system: SF-268
KM12 = system: KM12
SN12C = system: SN12C
EKVX = system: EKVX
NCI-H522 = system: NCI-H522
UACC-62 = system: UACC-62
SK-OV-3 = system: SK-OV-3

SMILES | GI50 (OVCAR-4) | GI50 (HOP-92) | GI50 (MCF7) | GI50 (U-251) | GI50 (RPMI-8226) | GI50 (HL-60) | GI50 (A498) | GI50 (MDA-MB-435) | GI50 (PC-3) | GI50 (SNB-19) | GI50 (MDA-N) | GI50 (SR) | GI50 (RXF 393) | GI50 (SF-268) | GI50 (KM12) | GI50 (SN12C) | GI50 (EKVX) | GI50 (NCI-H522) | GI50 (UACC-62) | GI50 (SK-OV-3)
CN1CC[C@]2(c3cccc(O)c3)CC(=O)/C(=C/c3ccccc3)[C@@H]1C2.[O-][Cl+3]([O-])([O-])O | 3.37 µM (inactive) | 2.09 µM (inactive) | 2.19 µM (inactive) | 2.54 µM (inactive) | 1.86 µM (inactive) | 1.8 µM (inactive) | 6.98 µM (inactive) | 1.72 µM (inactive) | 1.76 µM (inactive) | 5.4 µM (inactive) | 1.58 µM (inactive) | 2.41 µM (inactive) | 1.49 µM (inactive) | 3.17 µM (inactive) | 3.61 µM (inactive) | 2.99 µM (inactive) | 6.92 µM (inactive) | 2.74 µM (inactive) | – | –
Cc1cc(=O)c2ccccc2n1CCCCCCCCCCn1c(C)cc(=O)c2ccccc21 | 15.4 µM (inactive) | 22.4 µM (inactive) | > 10 µM (inactive) | 15.6 µM (inactive) | – | 4.38 µM (inactive) | 15.1 µM (inactive) | 14.8 µM (inactive) | 28.8 µM (inactive) | 18.1 µM (inactive) | 17.5 µM (inactive) | 13.2 µM (inactive) | 26.1 µM (inactive) | 30.2 µM (inactive) | 15.9 µM (inactive) | 21.4 µM (inactive) | 11.7 µM (inactive) | 14.4 µM (inactive) | 17.1 µM (inactive) | 19.3 µM (inactive)
CN(C)CCCNC(=O)c1cc(NS(=O)(=O)c2ccc3c(c2)C(=O)c2ccccc2C3=O)cn1C | 16.8 µM (inactive) | 32.1 µM (inactive) | 19.5 µM (inactive) | 29.1 µM (inactive) | 14.8 µM (inactive) | 22.1 µM (inactive) | 23.2 µM (inactive) | 25.4 µM (inactive) | 33.3 µM (inactive) | 12.8 µM (inactive) | 28.1 µM (inactive) | 21.9 µM (inactive) | 28 µM (inactive) | 29.5 µM (inactive) | 17.8 µM (inactive) | 29.1 µM (inactive) | > 100 µM (inactive) | 22.6 µM (inactive) | 20.8 µM (inactive) | 92.5 µM (inactive)
C[C@]12CCC(O)CC1=CC[C@@H]1[C@@H]2CC[C@]2(C)C(=O)[C@H](n3ccnc3)C[C@@H]12 (stereo partly specified) | 89.1 µM (inactive) | > 100 µM (inactive) | 35.8 µM (inactive) | 61.9 µM (inactive) | 21.2 µM (inactive) | 11.6 µM (inactive) | > 100 µM (inactive) | 43.1 µM (inactive) | 28.6 µM (inactive) | 79.1 µM (inactive) | 57.4 µM (inactive) | 32.4 µM (inactive) | > 100 µM (inactive) | > 100 µM (inactive) | 38.9 µM (inactive) | > 100 µM (inactive) | > 100 µM (inactive) | 33.5 µM (inactive) | 47.5 µM (inactive) | –
CCOc1ccccc1/N=N/C1C(=O)N(C(=O)CC(=O)Nc2ccccc2Cl)N=C1C (stereo unspecified) | 71 µM (inactive) | 20.3 µM (inactive) | > 100 µM (inactive) | 42.7 µM (inactive) | 27.2 µM (inactive) | 32.8 µM (inactive) | 50.1 µM (inactive) | > 100 µM (inactive) | 94.4 µM (inactive) | – | > 100 µM (inactive) | 78.7 µM (inactive) | > 100 µM (inactive) | 33.7 µM (inactive) | > 100 µM (inactive) | > 100 µM (inactive) | 3.86 µM (inactive) | > 100 µM (inactive) | 56 µM (inactive) | 26.9 µM (inactive)
COC(=O)/C(C#N)=C/c1cc(C(C)(C)C)c(O)c(C(C)(C)C)c1 | 1.85 µM (inactive) | 0.662 µM (active) | 2.66 µM (inactive) | 2.26 µM (inactive) | 0.401 µM (active) | 1.88 µM (inactive) | 1.77 µM (inactive) | 3.21 µM (inactive) | 2.11 µM (inactive) | 3.17 µM (inactive) | 2.92 µM (inactive) | 0.904 µM (active) | 3.41 µM (inactive) | 3.27 µM (inactive) | 2.62 µM (inactive) | 1.48 µM (inactive) | 2.33 µM (inactive) | 0.984 µM (active) | 1.76 µM (inactive) | 2.48 µM (inactive)
COC(=O)c1c(C)nc(C)c(N=O)c1-c1ccccc1C(F)(F)F | 16.1 µM (inactive) | 17.3 µM (inactive) | 20.2 µM (inactive) | 17.5 µM (inactive) | 73.8 µM (inactive) | 8 µM (inactive) | > 100 µM (inactive) | 22.3 µM (inactive) | 34.2 µM (inactive) | > 100 µM (inactive) | 19.7 µM (inactive) | 13.7 µM (inactive) | 15.3 µM (inactive) | 15.8 µM (inactive) | 19.1 µM (inactive) | 21.3 µM (inactive) | 99.8 µM (inactive) | 4.97 µM (inactive) | 27.6 µM (inactive) | > 100 µM (inactive)
COCc1nc2c(OC)c(-c3nc4ccc(N5CCN(C)CC5)nc4[nH]3)cc(OC)c2[nH]1 | 46.1 µM (inactive) | > 100 µM (inactive) | 40.5 µM (inactive) | 39.7 µM (inactive) | – | 30.7 µM (inactive) | > 100 µM (inactive) | 41.8 µM (inactive) | 33.3 µM (inactive) | 48 µM (inactive) | 73.3 µM (inactive) | 32.9 µM (inactive) | 27.2 µM (inactive) | 77.4 µM (inactive) | 27.4 µM (inactive) | 51.5 µM (inactive) | 68.1 µM (inactive) | 37.7 µM (inactive) | > 100 µM (inactive) | 45.3 µM (inactive)
Clc1ccc2c(NC3CCC(N4CCCCC4)CC3)ccnc2c1 (stereo unspecified) | 26.5 µM (inactive) | 12.6 µM (inactive) | 28.8 µM (inactive) | 21 µM (inactive) | 18.1 µM (inactive) | 14.5 µM (inactive) | 18.3 µM (inactive) | 14.1 µM (inactive) | 32.5 µM (inactive) | 32.7 µM (inactive) | 16.7 µM (inactive) | 13.2 µM (inactive) | 18.2 µM (inactive) | 35.8 µM (inactive) | 20.1 µM (inactive) | 34.5 µM (inactive) | 21.2 µM (inactive) | 20.9 µM (inactive) | 17.9 µM (inactive) | 57.9 µM (inactive)
COc1ccc(/N=N/c2ccc3oc(=O)c(C(=O)Nc4ccccc4C)cc3c2)cc1 | > 10 µM (inactive) | > 10 µM (inactive) | > 10 µM (inactive) | > 10 µM (inactive) | > 10 µM (inactive) | – | > 10 µM (inactive) | > 10 µM (inactive) | > 10 µM (inactive) | – | > 10 µM (inactive) | > 10 µM (inactive) | > 10 µM (inactive) | > 10 µM (inactive) | > 10 µM (inactive) | > 10 µM (inactive) | > 10 µM (inactive) | > 10 µM (inactive) | – | > 10 µM (inactive)
